From patent US20020082273A1, “Agents for use in the treatment of alzheimer's disease” (priority 1998, published 2002)
Where a name gives a salt, the structure may show the parent alone.

Tests used:
Assay type in all cases: biochemical
Aβ1-42 = Aβ1-42 (Homo sapiens, UniProt P05067); assay: Effect of metal chelators on H2O2 production from Aβ1-42; conditions: 1 μM Cu^2+; chelator 200 μM
[1] = target: T1, Aβ1-40 or Aβ1-42 SDS-resistant polymers (Homo sapiens, UniProt P05067); assay: Dissolution of in vitro Cu^2+-induced SDS-resistant Aβ polymers
T1 construct: purchased W. Keck Laboratory, Yale; host or cells: chemical synthesis
T1 sequence (P05067 672-713, change not shown): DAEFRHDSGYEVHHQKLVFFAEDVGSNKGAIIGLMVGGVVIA

[2] = Metal reduction assay, Fe^3+ to Fe^2+; conditions: 10 μM Fe^3+, PBS pH 7.4, 1 hr 37° C.
Experimental: (§1) The metal reduction assay was performed using a 96-well microtiter plate (Costar) based upon a modification of established protocols (Landers, J. W., et al., Amer. Clin. Path. 29:590 (1958); Landers, J. W., et al., Clinica Chimica Acta 3:329 (1958)). Polypeptides (10 μM) or Vitamin C (100 μM), metal ions (10 μM, Fe(NO3)3 or Cu(NO3)2), and reduced metal ion indicators, bathophenanthrolinedisulfonic acid (BP, for Fe^2+, Sigma, 200 μM) or bathocuproinedisulfonic acid (BC, for Cu^+, Sigma, 200 μM), were coincubated in phosphate buffered saline (PBS), pH 7.4, for 1 hr at 37° C. The metal ion solutions were prepared by direct dilution in the buffer from their aqueous stocks purchased from National Institute of Standards and Technology (NIST). Absorbances were then measured at 536 mn (Fe^2+-BP complex) and 483 nm (Cu^+-BC complex), respectively, using a 96-well plate reader (SPECTRAmax 250, Molecular Devices, CA). In control samples, both metal ion and indicator were present to determine the background buffer signal. As a further control, both metal ion and peptide were present in the absence of indicator to estimate the contribution of light scattering due to turbidity to the absorbance reading at these wavelengths. The net absorbances (ΔA) at 536 nm or 483 nm were obtained by deducting the absorbances from these controls from the absorbances generated by the peptide and metal in the presence of the respective indicator.
The concentrations of reduced metal ions (Fe^2+ or Cu^+) were quantified based on the formula: Fe^2+ or Cu^+ (˜M)=A*10^6/(L*M), where L is the measured equivalent vertical pathlength for a well of 300 μL volume as described in the instrument's specifications manual (0.856 cm for Fe^2+; 1.049 cm for Cu^+); M is the known molecular absorbance (M^−1 cm^−1) which is 7124 (for Fe^2+-BP complex) or 2762 (for Cu^+-BC complex).

[3] = Metal reduction assay, Cu^2+ to Cu^+
Experimental: Aβ (10 μM in PBS, pH 7.4 or 6.8, as shown) was incubated for 30 minutes (37° C.) in the presence of Cu^2+10 μM ±Zn^2+ 10 μM). […] levels (n=3, ±SD) were assayed against a standard curve.
as §1, with “Polypeptides” for “The metal reduction assay was performed using a 96-well microtiter plate (Costar) based upon a modification of established protocols (Landers, J. W., et al., Amer. Clin. Path. 29:590 (1958); Landers, J. W., et al., Clinica Chimica Acta 3:329 (1958)). Polypeptides”, “Absorbances were then measured at 536 mn (Fe^2+-BP complex) and 483 nm (Cu^+-BC complex), respectively, using a 96-well plate reader (SPECTRAmax 250, Molecular Devices, CA).” left out

Chain of Aβ1-42 (P05067 672-713 limits assumed): as the sequence (P05067 672-713, change not shown) above

| Compound | disruption of SDS-resistant polymers ([1]; 4.5 M) | disruption of SDS-resistant polymers ([1]; 9M) | also measured |
| --- | --- | --- | --- |
| O=S(=O)(O)c1ccc(-c2ccnc3c2ccc2c(-c4ccc(S(=O)(=O)O)cc4)ccnc23)cc1 [BP, bathophenanthrolinedisulfonic acid] |  |  | effect on H2O2 formation by Aβ1-42 (Aβ1-42): inhibited H2O2 formation |
| NC(N)=O [Urea, urea] | did not disrupt | only slightly |  |
| N=C(N)N [guanidine HCl] | did not disrupt | only slightly |  |
| insulin: histidine-containing peptide that can bind copper and zinc |  |  | reduction of available Fe^3+ [2]: did not significantly facilitate the reduction of Fe^3+; reduction of available Cu^2+ ([3]; 10 μM Cu^2+, PBS pH 7.4, 1 hr 37° C.): 10%; Cu^2+ reduction ([3]; 10 μM, PBS, 30 minutes 37° C., Cu^2+ 10 μM): no Cu^2+ reduction |
